Results published in patent US4499107A, “Method for treating infected renal calculosis” (Dr. L^o. Zambeletti, S.p.A., priority 1981, dated 1985).
Read-outs that look alike come from different tables or passages of the source.

Tests used:
[1] = Teratogenesis in pregnant female rats
[2] = Acute toxicity; settings: mouse, in vivo
[3] = tested on: mouse embryonal cell cultures; settings: 1,1.10^-4 M; cited from earlier work
[4] = tested on: Salmonella typhimurium (TA 100 and TA 98); settings: strains TA 100 and TA 98, 40,000 μg/plate; cited from earlier work
[5] = pregnant female rats, 12th day of pregnancy, cited from earlier work
[6] = parameters: species or system "Wistar" rats; settings: rat, in vivo, po, 200 mg/kg
Experimental: Subacute toxicity. A test lasting 4 weeks has been carried out on the two compounds administered at the dose of 200 mg/kg by oral route to groups of "Wistar" rats, 8 males and 8 females, with daily observation of the behavior, of health status, of feed and water consumption and, twice a week, of the body weight of animals. At the end of 4 weeks the animals have been sacrificed and autopsy and haematological and haematochemical examinations have been performed on them. For all the duration of the test, no anomaly has been noticed in the behavior of both AHA-treated and PHA-treated animals.

[7] = rabbit, in vivo; for duration of the reduction of the arterial pressure: po, 100 mg/kg
[8] = tested on: urease-producing bacteria; settings: renal lithiasis sustained by urease-producing bacteria; cited from earlier work
[9] = tested on: chinese hamster embryonal cell cultures; settings: 1,1.10^-4 M; cited from earlier work
[10] = tested on: Salmonella typhimurium (TA 100 and TA 98); experiment: Ames test; assay type: cell-based
Experimental: In the Belgian Pat. No. 878,836, Jan. 16, 1980, it is moreover reported that AHA is mutagenic according to the Ames test on two strains of Salmonella typhimurium (TA 100 and TA 98), at the dose of 40,000 μg/plate.
(§1) Mutagenesis. As far as AHA is concerned, it has been previously reported. […] The propionhydroxamic acid is non mutagenic also in the Ames test.

[11] = tested on: mouse embryonal cell cultures; experiment: Mutagenesis: morphological changes of the chromosomes in embryonal cell cultures; assay type: cell-based; settings: 1.1 10^-4 M, 24-72 hours of incubation
Description: as §1

[12] = tested on: chinese hamster embryonal cell cultures; experiment: as above; assay type: cell-based; settings: 1.1 10^-4 M, 24-72 hours of incubation
Description: as §1

[13] = rat, in vivo, ip, 300 mg/kg
[14] = tested on: urinary infection caused by urease-producing bacteria; assay type: in vivo, patient
Description: The results shown above, pointing out a globally superimposable behavior of AHA and PHA, with the exclusion of the fundamental aspects of the mutagenesis and of the theratogenesis, which are absent in propionhydroxamic acid, prompted to test this latter compound on some clinical cases, hereunder reported. (1) Urinary infection caused by urease-producing bacteria; (2) relapsing renal calculosis.

[15] = Case 1, 500 mg/die combined with antibiotic therapy
[16] = Case 2, 375 mg/die combined with antibiotic therapy
[17] = Case 4, 500 mg/die with antibiotic therapy, after 3 months
[18] = Case 5, 500 mg/die with antibiotic therapy

## CC(=O)NO [AHA, acetohydroxamic acid, reference compound]
[1]; dose for AHA not stated at this place
  dead fetuses (comparison value): 50%
[2]; po
  LD50: 2740 mg/kg
[3]
  morphological changes of the chromosomes provoked by damages at DNA: causes morphological changes of the chromosomes
[4]
  mutagenicity in the Ames test: mutagenic
[5]; i.p. 750 mg/kg una tantum
  fetuses with deformations: 50%
[5]; i.p. 1000 mg/kg una tantum
  deaths of fetuses: 55%
  deformations in the survived fetuses: 100%
[5]; i.p. 1500 mg/kg una tantum
  reabsorption of fetuses: 100%
[6]
  autoptical examination of the main organs (thymus, testes, heart, liver): hypotrophy of the main organs
  behavior of animals: no anomaly
  feed consumption: decrease
  haematochemical parameters, AHA versus PHA: No remarkable differences
  macroscopic lesion of the main organs: no macroscopic lesion
[7]; 50 mg/kg
  reduction of the mean arterial pressure: 15%
  time after administration at which the reduction of mean arterial pressure is still present: ≥ 120 min
[7]
  duration of the reduction of the arterial pressure: > 120 min
[8]
  drug's action on urinary ammonium and urinary pH: decrease of urinary ammonium and urinary pH
[9]
  morphological changes of the chromosomes provoked by damages at DNA: causes morphological changes of the chromosomes

## CCC(=O)NO [PHA, propionhydroxamic acid]
[1]; intraperitoneal, once on the 13th day of pregnancy, 300 mg/kg
  dead fetuses: 55%
[2]; oral route, confidence limits in brackets
  LD50: 2370 mg/kg
[10]
  mutagenicity in the Ames test: non mutagenic
[11]
  morphologic change of the chromosomes provoked by damages at DNA: did not induce
[12]
  morphologic change of the chromosomes provoked by damages at DNA: did not induce
[13]
  morphological development of the survived fetuses: perfectly normal development
[6]
  autoptical examination of the main organs (thymus, testes, heart, liver): hypotrophy of the main organs
  behavior of animals: no anomaly
  feed consumption: decrease
  haematochemical parameters, AHA versus PHA: No remarkable differences
  macroscopic lesion of the main organs: no macroscopic lesion
[7]; 50 mg/kg
  blood pressure: does not change
  heart rate: does not change
[7]
  duration of the reduction of the arterial pressure: 10 to 30 min
[14]; [15]
  urinary ammonium values: normalization
  urinary pH: normalization
[14]; Case 1, 500 mg/die combined with antibiotic therapy, Proteus mirabilis
  urinary cultures: sterilization of urinary cultures
[14]; Case 2, 375 mg/die
  effect of temporary interruption of the drug: reapparence of urease producing bacteria (Klebsiella)
[14]; [16]
  urinary ammonium values: decrease of urinary ammonium values
  urinary infection: resolution of urinary infection
[14]; Case 2, 375 mg/die combined with antibiotic therapy, Proteus mirabilis and Klebsiella
  urinary acidification: sufficient urinary acidification
[14]; Case 2, 375 mg/die, during 5 months' therapy
  volumetric increase of the lithiasic relapse: not observed
[14]; Case 3
  lithiasic relapse at the left kidney: Absence of lithiasic relapse
[14]; Case 3, combination
  crystalluria: non pathologic crystalluria
[14]; Case 3, combination, Proteus mirabilis
  urinary ammonium: normalization
[14]; Case 4, 500 mg/die
  lithiasic relapse at the left kidney: no lithiasic relapse
[14]; [17]
  crystalluria: normalization
  urinary pH: normalization
[14]; Case 4, 500 mg/die with antibiotic therapy, after 3 months, Proteus mirabilis and Klebsiella
  ammonium values: normalization
[14]; [18]
  growth of the already present lithiasic formation: stopping of the growth
  onset of further relapses: lacking onset of further relapses
  urinary infection: resolution of urinary infection
  urinary pH: normalization
[14]; Case 5, 500 mg/die with antibiotic therapy, Proteus mirabilis
  urinary ammonium: normalization
